Assay results from ChEMBL document CHEMBL5149974, “Antimicrobial drugs bearing guanidine moieties: A review” (Eur J Med Chem, 2021).
Values after ≈ are worked out from the molar mass of the structure shown.

Key:
Format in all cases: functional
Klebsiella pneumoniae = experiment: Antibacterial activity against Klebsiella pneumoniae assessed as bacterial growth inhibition
Enterococcus faecalis = experiment: Antibacterial activity against vancomycin-resistant Enterococcus faecalis assessed as bacterial growth inhibition
Escherichia coli [1] = experiment: Antibacterial activity against Escherichia coli assessed as bacterial growth inhibition
[2] = system: Staphylococcus epidermidis; experiment: Antibacterial activity against methicillin-resistant Staphylococcus epidermidis assessed as bacterial growth inhibition
Clostridioides difficile = experiment: Antibacterial activity against Clostridium difficile assessed as bacterial growth inhibition incubated for 24 hrs
Staphylococcus aureus [3] = experiment: Antibacterial activity against methicillin-resistant Staphylococcus aureus assessed as bacterial growth inhibition
Pseudomonas aeruginosa = experiment: Antibacterial activity against Pseudomonas aeruginosa assessed as bacterial growth inhibition
Escherichia coli [4] = experiment: Antibacterial activity against Escherichia coli assessed as bacterial growth inhibition incubated for 18 to 24 hrs by broth microdilution assay; settings: time 18-24 hrs
Staphylococcus aureus [5] = experiment: Antibacterial activity against Staphylococcus aureus assessed as bacterial growth inhibition incubated for 18 to 24 hrs by broth microdilution assay; settings: time 18-24 hrs
[6] = system: Mycobacterium tuberculosis; experiment: Potentiation of isoniazid-induced antimycobacterial activity against Mycobacterium tuberculosis H37Rv assessed as reduction in isoniazid MIC at 250 uM incubated for 48 hrs by alamar blue staining based analysis
[7] = system: Mycobacterium tuberculosis; experiment: Potentiation of isoniazid-induced antimycobacterial activity against Mycobacterium tuberculosis H37Rv assessed as reduction in isoniazid MIC at 125 uM incubated for 48 hrs by alamar blue staining based analysis
Staphylococcus aureus [8] = experiment: Potentiation of ethidium bromide-induced antibacterial activity against Staphylococcus aureus 1199B overexpressing NorA efflux pump assessed as fold reduction in ethidium bromide MIC by microdilution method
Staphylococcus aureus [9] = experiment: Potentiation of Norfloxacin-induced antibacterial activity against Staphylococcus aureus 1199B overexpressing NorA efflux pump assessed as fold reduction in norfloxacin MIC by microdilution method
[10] = system: Mycobacterium tuberculosis; experiment: Anti-mycobacterial activity against Mycobacterium tuberculosis H37Rv assessed as bacterial growth inhibition incubated for 7 days by REMA assay; settings: 168 h, time 7 day
Staphylococcus aureus [11] = experiment: Antibacterial activity against Staphylococcus aureus assessed as bacterial growth inhibition incubated for 24 hrs
Escherichia coli [12] = experiment: Antibacterial activity against Escherichia coli assessed as bacterial growth inhibition incubated for 24 hrs
[13] = system: Mycolicibacterium smegmatis; experiment: Potentiation of cefotaxime-induced antimycobacterial activity against Mycobacterium smegmatis assessed as cefotaxime MIC at 9 ug/ml (reference value: 128 ug/ml); settings: dose 9 µg/ml
[14] = system: Mycobacterium tuberculosis; experiment: Anti-mycobacterial activity against Mycobacterium tuberculosis H37Rv ATCC 27294 assessed as bacterial growth inhibition incubated for 7 days by resazurin dye based assay; settings: H37Rv ATCC 27294, 168 h, time 7 day
Nakaseomyces glabratus [15] = experiment: Synergistic antifungal activity against Candida glabrata assessed as fractional inhibitory concentration index in presence of fluconazole incubated for 18 hrs by checkerboard assay
Nakaseomyces glabratus [16] = experiment: Synergistic antifungal activity against Candida glabrata assessed as fractional inhibitory concentration index in presence of amphotericin incubated for 18 hrs by checkerboard assay
Nakaseomyces glabratus [17] = experiment: Synergistic antifungal activity against Candida glabrata assessed as fractional inhibitory concentration index in presence of voriconazole incubated for 18 hrs by checkerboard assay
Staphylococcus aureus [18] = experiment: Antibacterial activity against methicillin-resistant Staphylococcus aureus ATCC 33591 assessed as bacterial growth inhibition by CLSI based broth microdilution method
[19] = system: Mycobacterium tuberculosis; experiment: Anti-mycobacterial activity against Mycobacterium tuberculosis H37Rv ATCC […] assessed as bacterial growth inhibition by alamar blue assay
[20] = system: Mycolicibacterium smegmatis; experiment: Potentiation of cefotaxime-induced antibacterial activity against Mycobacterium smegmatis assessed as cefotaxime MIC incubated for 48 hrs by alamar blue assay (reference value: 64 ug/ml)

CCCCCCN1C(=N)N(CC(=O)Nc2cccc(NC(=O)CN3C[C@H](Cc4ccccc4)N(CCCCCC)C3=N)c2)C[C@@H]1Cc1ccccc1 gave an MIC (Klebsiella pneumoniae) of 0.75 µg/mL (≈ 1.06 µM), an MIC (Enterococcus faecalis) of 0.75 µg/mL (≈ 1.06 µM) and an MIC (Escherichia coli [1]) of 0.75 µg/mL (≈ 1.06 µM). The MIC [2] was 0.75 µg/mL (≈ 1.06 µM), the MIC (Clostridioides difficile) was 1 µg/mL (≈ 1.41 µM) and the MIC (Staphylococcus aureus [3]) was 0.16 µg/mL (≈ 0.226 µM). It also gave an MIC (Pseudomonas aeruginosa) of 4 µg/mL (≈ 5.66 µM).
N=C(N)NCCNC(=O)[C@H](Cc1c[nH]c2ccccc12)NC(=O)c1cc(Br)ccc1NC(=O)c1ccc2ccccc2c1 showed an MIC (Escherichia coli [4]) of 15.6 µM (≈ 9.99 µg/mL) and an MIC (Staphylococcus aureus [5]) of 2 µM (≈ 1.28 µg/mL).
For CCCCCCC(CCCCCC)NC(=O)CCCc1c[nH]c(N)n1, the MIC [6] was 0.039 µg/mL and the MIC [7] was 0.039 µg/mL.
In the case of Cl.N#Cc1ccc(/C=N/NC(=N)N)cc1, the “fold change (FC)” value (Staphylococcus aureus [8]) is reported as “<=32” and the “fold change (FC)” value (Staphylococcus aureus [9]) is reported as “<=16”.
Work on COc1ccc(C2C(C(C)=O)=C(C)Nc3nc(N)[nH]c(=O)c32)cc1OC (stereo not drawn) yielded an MIC [10] of 1.95 µg/mL (≈ 5.47 µM).
COC(=O)C(CCCNC(=N)N)NC(=O)C(CCCCNC(=N)N)NC(=O)C(=O)c1cc(Br)ccc1NC(=O)c1ccc2ccccc2c1.Cl.Cl (stereo not drawn) gave an MIC (Staphylococcus aureus [11]) of 10 µg/mL.
With COC(=O)C(CCCCNC(=N)N)NC(=O)C(=O)c1ccccc1NC(=O)c1ccc2ccccc2c1.Cl (stereo not drawn) the MIC (Escherichia coli [12]) was 17 µg/mL.
In the case of CCCCCc1ccc(C(=O)Nc2ccc3c(c2)nc(N)n3CCCc2ccccc2)cc1, the MIC [13] is reported as 1 µg/mL.
With Cl.NC(N)=N/N=C/c1ccc(Cl)c(Cl)c1 the “fold change (FC)” value (Staphylococcus aureus [8]) was “<=32” and the “fold change (FC)” value (Staphylococcus aureus [9]) was “<=16”.
With N=C(N)NCCNC(=O)c1cc2c([nH]c3ccccc32)c(-c2ccc(O)cc2)n1 the MIC [14] was 27.8 µg/mL (≈ 71.6 µM).
In the case of CN(C)C(=N)NC(=N)N [METFORMIN], the “fractional inhibitory concentration index (FICI)” value (Nakaseomyces glabratus [15]) is reported as 0.5, the “fractional inhibitory concentration index (FICI)” value (Nakaseomyces glabratus [16]) is reported as 0.5 and the “fractional inhibitory concentration index (FICI)” value (Nakaseomyces glabratus [17]) is reported as 0.5.
N=C(N)NC(=N)NCCc1ccccc1 [PHENFORMIN] was tested, and the “fractional inhibitory concentration index (FICI)” value (Nakaseomyces glabratus [15]) was 0.5, the “fractional inhibitory concentration index (FICI)” value (Nakaseomyces glabratus [16]) was 0.5 and the “fractional inhibitory concentration index (FICI)” value (Nakaseomyces glabratus [17]) was 0.5.
N=C(N)NC[C@H]1OC(O[C@@H]2[C@@H](O)[C@H](O[C@H]3O[C@H](CN)[C@@H](O)[C@H](O)[C@H]3O)[C@@H](N)C[C@H]2N)[C@H](O)[C@@H](N)[C@@H]1O (stereo partly drawn) was tested, and the MIC (Staphylococcus aureus [18]) was 3.12 µg/mL (≈ 5.95 µM).
COC(=O)C(CCCCNC(=N)N)NC(=O)C(=O)c1cc(Br)ccc1NC(=O)c1ccc2ccccc2c1.Cl (stereo not drawn) showed an MIC (Escherichia coli [12]) of 19 µg/mL.
Cc1nn(-c2ccccc2)c(Cl)c1-c1nc(N)nc2c1c(C)nn2-c1ccccc1Cl was tested, and the MIC [19] was 1.2 µg/mL (≈ 2.66 µM).
CCCCCCCC(NC(=O)CCCc1c[nH]c(N)n1)c1ccccc1 (stereo not drawn) was tested, and the MIC [20] was 2 µg/mL.
In the case of CCCCNC(=N)NC(=N)N [BUFORMIN], the “fractional inhibitory concentration index (FICI)” value (Nakaseomyces glabratus [15]) is reported as 0.5, the “fractional inhibitory concentration index (FICI)” value (Nakaseomyces glabratus [16]) is reported as 0.5 and the “fractional inhibitory concentration index (FICI)” value (Nakaseomyces glabratus [17]) is reported as 0.5.
